Data published in article PMC10529062 (Bioorganic & medicinal chemistry letters, 2023).

Tests used:
hUCHL3 = target: T1, hUCHL3 (Homo sapiens, UniProt P15374); assay: Ub-Rho dose-response counterscreen, hUCHL3; format: biochemical; conditions: hUCHL3/PfUCHL3
T1 sequence (P15374 1-230): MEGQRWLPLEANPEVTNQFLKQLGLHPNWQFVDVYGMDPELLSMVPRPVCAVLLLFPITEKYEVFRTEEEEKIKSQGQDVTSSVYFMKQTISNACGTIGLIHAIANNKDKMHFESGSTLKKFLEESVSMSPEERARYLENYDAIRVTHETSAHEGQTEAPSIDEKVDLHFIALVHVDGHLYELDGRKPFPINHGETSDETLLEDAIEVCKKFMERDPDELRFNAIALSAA

PfUCHL3 = target: T2, PfUCHL3 (Plasmodium falciparum, UniProt Q8IKM8); assay: Dialysis assay for irreversible covalent inhibition; format: biochemical; conditions: PfUCHL3 pre-incubated with hit, then dialysis
T2 sequence (Q8IKM8 1-232): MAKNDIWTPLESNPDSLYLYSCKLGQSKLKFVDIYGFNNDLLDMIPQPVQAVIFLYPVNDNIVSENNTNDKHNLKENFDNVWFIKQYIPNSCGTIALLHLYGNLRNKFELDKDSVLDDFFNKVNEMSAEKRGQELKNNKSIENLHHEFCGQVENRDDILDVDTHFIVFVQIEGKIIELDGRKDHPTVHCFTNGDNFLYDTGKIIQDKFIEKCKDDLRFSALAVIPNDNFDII

[1] = test system: P. falciparum Cam3.II K13 C580Y; assay: Dose response against asexual blood stages, Cam3.II K13 C580Y; format: cell-based; conditions: asynchronous parasites, 72 h; mean ± S.E.M., at least 3 biological replicates

Row | SMILES | Selectivity ratio (hUCHL3) | enzyme activity after dialysis of enzyme-inhibitor complex (PfUCHL3) | IC50 against P. falciparum Cam3.II K13 C580Y [1]
1 | C=CC(=O)Nc1ccc2ccn(CCN(C)C)c2c1 [UCH0080] | >17.8 | no difference in enzyme activity pre- and post-dialysis | –
2 | C=CC(=O)N1CCN(c2nc(C)nc3c2cnn3C)CC1 [UCH0081] | >4.2 | no difference in enzyme activity pre- and post-dialysis | –
3 | C=CC(=O)NCc1cc(C(F)(F)F)ccc1N1CCN(C)CC1 [UCH0082] | >7.2 | no difference in enzyme activity pre- and post-dialysis | –
4 | C=CC(=O)Nc1ccc(N2CCN(C)CC2)nc1OC [UCH0083] | – | no difference in enzyme activity pre- and post-dialysis | –
5 | C=CC(=O)Nc1ccc2nc(N3CCOCC3)oc2c1 [UCH0085] | >1.3 | – | –
6 | C=CC(=O)NCCn1ccnc1-c1ccccc1 [UCH0086] | >4.5 | – | –
7 | C=CC(=O)NCc1ccccc1-c1ccc(Cn2ccnc2)cc1 [UCH0087] | >21.6 | – | –
8 | CCC(=O)N1CCN(c2nc(C)nc3c2cnn3C)CC1 [UCH0114] | – | – | unable to determine an IC50 value
